Data from paper PMC10162847 (Phytomedicine, 2023).

Tested on: SARS-CoV-2 RBD^WT and mutant proteins on HEK293-hACE2-EGFP cells
Assay type: cell-based, human

O=c1c(O)c(-c2cc(O)c(O)c(O)c2)oc2cc(O)cc(O)c12 [myricetin, 3,5,7-trihydroxy-2-(3,4,5-tri hydroxyphenyl)-4-benzopyrone]
binding of SARS-CoV-2 S protein to HEK293-hACE2-EGFP cell membranes: blocked
